Broadly, the IC50 is the midpoint of a concentration-inhibition curve.

Where two headings read alike, the source gives them in different places.

These results are taken from publication PMC6155665, “Antiplasmodial Activity, Cytotoxicity and Structure-Activity Relationship Study of Cyclopeptide Alkaloids” (Molecules : A Journal of Synthetic Chemistry and Natural …, 2017).

For data set [1], the system named is P. falciparum strain K1. The data set is described as follows: In vitro antiplasmodial activity. The class given is cell-based. The settings on record: Plasmodium falciparum. Here is the method: (§1) The antiplasmodial and cytotoxic activity determinations of all cyclopeptide alkaloids were performed as reported before. Each experiment was performed at least in triplicate and the average IC50 values were calculated.

The nature of data set [2]: Cytotoxicity against MRC-5 cells. To be noted: human. Here is the method: as §1
For a further data set, the system named is Plasmodium falciparum. The settings on record: cited from earlier work; for IC50: read-out: antiplasmodial IC50.
Data set [3] has as its system P. falciparum strain K1. On the set-up: method as in PMID 27351950, PMID 27933893. The settings on record: previously reported by the same group, same test conditions; cited from earlier work.
In another data set the test system is MRC-5 cells. The settings on record: cited from earlier work.
The mark [4] stands for this setting: strain K1, average of at least triplicate, read-out: P. falciparum K1 IC50.
Where [5] appears, read: read-out: MRC-5 IC50, cytotoxicity, previously reported by the same group.
[6] abbreviates: corresponding to the μg/mL values, Suksamrarn et al.

Turning to `CCN(CC)CCCC(C)Nc1ccnc2cc(Cl)ccc12` (stereo not shown) [Chloroquine, reference compound], the IC50 in the data set on P. falciparum strain K1 [1] (K1, read-out: P. falciparum K1 IC50) came to 0.15 µM.

On to `CCC(C)[C@@H]1NC(=O)[C@@H]2[C@H](CCN2C(=O)[C@@H](NC)C(C)CC)Oc2ccc(cc2)/C=C\NC1=O` (stereo partly shown) [Compound 1, Nummularine-U], for which the IC50 in the data set on P. falciparum strain K1 [1] (setting [4]) is 23 ± 8.5 µM; in data set [2] (MRC-5 cells) it was > 64 µM.

With `CN[C@@H](C)C(=O)N[C@H](C(=O)N1CC[C@@H]2Oc3ccc(cc3)/C=C\NC(=O)[C@H](Cc3ccccc3)NC(=O)[C@H]21)C(C)C` [Compound 2, Mauritine-F], the IC50 in the data set with P. falciparum strain K1 [1] (setting [4]) was 34.2 ± 9.14 µM; in data set [2], > 64 µM.

As to `CCC(C)[C@@H]1NC(=O)[C@@H]2[C@H](CCN2C(=O)[C@@H](NC(=O)[C@H](Cc2ccccc2)N(C)C)C(C)CC)Oc2ccc(O)c(c2)/C=C\NC1=O` (stereo partly shown) [Compound 3, Spinanine-B], the half-inhibitory concentration (IC50) in the data set with P. falciparum strain K1 [1] (setting [4]) is 2.1 ± 0.3 µM; in data set [2], > 64 µM.

In the case of `CC(C)C[C@@H]1NC(=O)[C@@H](NC(=O)[C@H](C(C)O)N(C)C)[C@H](c2ccccc2)Oc2ccc(cc2)/C=C\NC1=O` (stereo partly shown) [Compound 4, Nummularine-E], the IC50 (in the data set on P. falciparum strain K1 [1] (setting [4]); in data set [2] (MRC-5 cells)) was > 64 µM in each case.

Consider `CCC(C)[C@@H]1NC(=O)[C@@H]2[C@H](CCN2C(=O)[C@@H](NC(=O)[C@H](Cc2ccccc2)N(C)C)C(C)CC)Oc2ccc(cc2)/C=C\NC1=O` (stereo partly shown) [Compound 5, Amphibine-D], for which the IC50 with P. falciparum strain K1 [1] (setting [4]) is 8.9 ± 1.5 µM; in data set [2], > 64 µM.

For `CN[C@@H](C)C(=O)N[C@H](C(=O)N1CC[C@@H]2Oc3ccc(OC)c(c3)/C=C\NC(=O)[C@H](C(C)C)NC(=O)[C@H]21)C(C)C` [Compound 6, Jubanine-F], the values for the 50% inhibitory concentration (IC50) (in the data set with P. falciparum strain K1 [1] (setting [4]); in data set [2]) were 12.8 ± 2.9 µM and > 64 µM, respectively.

For `CCC(C)[C@H](NC(=O)[C@H](C)NC)C(=O)N1CC[C@@H]2Oc3ccc(OC)c(c3)/C=C\NC(=O)[C@H](C(C)C)NC(=O)[C@H]21` (stereo partly shown) [Compound 7, Jubanine-G], the half-maximal inhibitory concentration (IC50) in the data set with P. falciparum strain K1 [1] (setting [4]) is 4.7 ± 2.4 µM; in data set [2], > 64 µM.

For the molecule `CN[C@@H](C)C(=O)N[C@H](C(=O)N1CC[C@@H]2Oc3ccc(OC)c(c3)/C=C\NC(=O)[C@H](Cc3ccccc3)NC(=O)[C@H]21)C(C)C` [Compound 8, Nummularine-B], the IC50 was 3.6 ± 1.3 µM in the data set on P. falciparum strain K1 [1] (setting [4]), > 64 µM in data set [2] and 10.3 µM in the data set on Plasmodium falciparum (Panseeta et al.). For the same molecule, the “antiplasmodial activity against Plasmodium falciparum (in words)” value with Plasmodium falciparum (Panseeta et al.) was “moderately active”.

For `CC[C@H](C)[C@@H]1NC(=O)[C@@H](NC(=O)[C@H](CC(C)C)N(C)C)[C@H](C(C)C)Oc2ccc(cc2)/C=C\NC1=O` [Compound 9, Adouetine-X], the IC50 worked out at 7.5 ± 1.8 µM in the data set on P. falciparum strain K1 [1] (setting [4]) and 19.1 ± 11.9 µM in data set [2] (MRC-5 cells).

As for `CCC(C)[C@@H](C(=O)N[C@@H]1C(=O)N[C@@H](CC(C)C)C(=O)N/C=C\c2ccc(cc2)O[C@H]1C(C)C)N(C)C` (stereo partly shown) [Compound 10, Frangulanine], the IC50 in the data set on P. falciparum strain K1 [1] (setting [4]) was 14.9 ± 5.2 µM; in data set [2] (MRC-5 cells), 30.6 ± 6.5 µM.

Consider `CCC(C)[C@@H](C(=O)N[C@H](C(=O)N[C@@H]1C(=O)N[C@@H](Cc2c[nH]c3ccccc23)C(=O)NCC(=O)c2ccc(cc2)OC1(C)C)C(C)C)N(C)C` (stereo partly shown) [Compound 11, Hymenocardine], for which the IC50 in the data set with P. falciparum strain K1 [3] is 16.4 ± 6.8 µM; in the data set on MRC-5 cells, 51.1 ± 17.2 µM.

For `CCC(C)[C@@H](C(=O)N[C@H](C(=O)N[C@@H]1C(=O)N[C@@H](Cc2c[nH]c3ccccc23)C(=O)NCC(O)c2ccc(cc2)OC1(C)C)C(C)C)N(C)C` (stereo partly shown) [Compound 12, Hymenocardinol], the IC50 was 17.5 ± 8.7 µM with P. falciparum strain K1 [3] and > 64 µM in the data set on MRC-5 cells.

Regarding `CCC(C)[C@@H](C(=O)N[C@H](C(=O)N[C@@H]1C(=O)N[C@@H](Cc2c[nH]c3ccccc23)C(=O)NCC(=O)c2ccc(cc2)OC1(C)C)C(C)C)[N+](C)(C)[O-]` (stereo partly shown) [Compound 13, Hymenocardine N-oxide], the figures for the 50% inhibitory concentration (IC50) in the data set on P. falciparum strain K1 [3] and with MRC-5 cells were 12.2 ± 6.6 µM and > 64 µM, respectively.

Consider `CCC(C)[C@H](NC(=O)[C@H](C(C)CC)N(C)C)C(=O)N[C@@H]1C(=O)N[C@@H](Cc2c[nH]cn2)C(=O)NCC(=O)c2ccc(cc2)O[C@H]1C(C)C` (stereo partly shown) [Compound 14, Hymenocardine-H], for which the values for the concentration for half-maximal inhibition (IC50) in the data set with P. falciparum strain K1 [3] and with MRC-5 cells were 27.9 ± 16.5 µM and > 64 µM, respectively.

Regarding `CCC(C)[C@@H]1NC(=O)[C@@H]2[C@H](CCN2C(=O)[C@H](Cc2c[nH]c3ccccc23)N(C)C)Oc2ccc(OC)c(c2)/C=C\NC1=O` (stereo partly shown) [Compound 15, Nummularine-R], the half-maximal inhibitory concentration (IC50) in the data set with P. falciparum strain K1 [3] was 3.2 ± 2.6 µM; in the data set with MRC-5 cells (setting [5]), 30.6 ± 4 µM.

With `CCC(C)[C@@H]1NC(=O)[C@@H]2[C@H](CCN2C(=O)[C@H](Cc2c[nH]c3ccccc23)N(C)C)Oc2ccc(O)c(c2)/C=C\NC1=O` (stereo partly shown) [Compound 16, O-desmethylnummularine-R], the 50% inhibitory concentration (IC50) in the data set on P. falciparum strain K1 [3] was 7.1 ± 1.6 µM; with MRC-5 cells (setting [5]) it was > 64 µM.

Turning to `CCC(C)[C@@H]1NC(=O)[C@@H]2[C@H](CCN2C(=O)[C@H](Cc2c[nH]c3ccccc23)N(C)C)Oc2ccc(cc2)/C=C\NC1=O` (stereo partly shown) [Compound 17, Hemsine-A], the IC50 was 13.6 ± 9.3 µM in the data set on P. falciparum strain K1 [3] and > 64 µM with MRC-5 cells (setting [5]).

As to `CCC(C)[C@@H]1NC(=O)[C@@H]2[C@H](CCN2C(=O)[C@H](C(C)CC)N(C)C)Oc2ccc(cc2)/C=C\NC1=O` (stereo partly shown) [Compound 18, Ramosine-A], the IC50 in the data set with P. falciparum strain K1 [3] is > 32 µM; in the data set on MRC-5 cells (setting [5]), > 64 µM.

Turning to `O=C1N/C=C\c2ccc(cc2)O[C@@H](c2ccccc2)[C@H](NC(=O)[C@@H]2CCCN2C(=O)/C=C/c2ccccc2)C(=O)N[C@H]1C(O)c1ccccc1` (stereo partly shown) [Compound 19, Oxyphylline-F], the values for the IC50 in the data set with P. falciparum strain K1 [3] and with MRC-5 cells (setting [5]) were 7.4 ± 3 µM and 31.2 ± 1.4 µM, respectively.

With `CCC(C)[C@H](C(=O)N[C@@H](CC(C)C)C(=O)N1CC[C@@H]2Oc3ccc(OC)c(c3)/C=C\NC(=O)[C@@H]3CCCN3C(=O)[C@H]21)N(C)C` (stereo partly shown) [ziziphine-N], the “antiplasmodial IC50” value in the data set on Plasmodium falciparum (Suksamrarn et al.) is 3.92 µg/mL. Also, the IC50 with Plasmodium falciparum (setting [6]) was 6.4 µM.

As for `CCC(C)[C@@H](NC)C(=O)N[C@@H](CC(C)C)C(=O)N1CC[C@@H]2Oc3ccc(OC)c(c3)/C=C\NC(=O)[C@@H]3CCCN3C(=O)[C@H]21` (stereo partly shown) [ziziphine-O], the “antiplasmodial activity (in words)” value in the data set on Plasmodium falciparum (Suksamrarn et al.) is on record as “not active”.

On to `CCC(C)[C@H](C(=O)N[C@H](C(=O)N1CC[C@@H]2Oc3ccc(OC)c(c3)/C=C\NC(=O)[C@@H]3CCCN3C(=O)[C@H]21)C(C)C)N(C)C` (stereo partly shown) [ziziphine-Q], for which the “antiplasmodial IC50” value in the data set on Plasmodium falciparum (Suksamrarn et al.) is 3.5 µg/mL. For the same molecule, in the data set with Plasmodium falciparum (setting [6]), the IC50 is 5.9 µM.

As for mauritine-L, the “antiplasmodial activity against Plasmodium falciparum (in words)” value in the data set on Plasmodium falciparum (Panseeta et al.) is reported as “not”.

Consider nummularine-B methiodide, for which the “antiplasmodial activity against Plasmodium falciparum (in words)” value with Plasmodium falciparum (Panseeta et al.) is on record as “not”.

ziziphine-P: the “antiplasmodial activity (in words)” value in the data set on Plasmodium falciparum (Suksamrarn et al.) is given as “not active”.
